The text below walks through data of patent publication US11840686B2, “Modulation of prekallikrein (PKK) expression” (Ionis Pharmaceuticals, Inc., priority 2013, dated 2023).

The data set concerns human PKK mRNA. Briefly: Antisense inhibition of human PKK mRNA in HepaRG cells, 1,000 nM, MOE/deoxy/cEt oligonucleotides (Example 3). The data set is classed as cell-based. The gist of the method:
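Readout is percent PKK mRNA reduction against untreated controls, by real-time PCR (RTS3454) adjusted for total RNA via RIBOGREEN. Oligonucleotides, phosphorothioate gapmers of 16 nucleosides with cEt, MOE and deoxy sugars, were delivered at 1,000 nM by electroporation to 20,000 HepaRG cells/well for roughly 24 h.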

The mark [1] stands for this setting: HepaRG cells, electroporation with 1,000 nM antisense oligonucleotide, approximately 24 hours, primer probe set RTS3454, relative to untreated control cells, experiment of Table 23.
The mark [2] stands for this setting: Table 19, HepaRG cells, electroporation with 1,000 nM antisense oligonucleotide, approximately 24 hours, PKK mRNA by RT-PCR (RTS3454), relative to untreated control cells.
The mark [3] stands for this setting: Table 20, HepaRG cells, electroporation with 1,000 nM antisense oligonucleotide, approximately 24 hours, PKK mRNA by RT-PCR (RTS3454), relative to untreated control cells.
Setting [4] is: Table 22 experiment, HepaRG cells, electroporation with 1,000 nM antisense oligonucleotide, approx. 24 hours, PKK mRNA by RT-PCR (RTS3454), relative to untreated control cells.
[5] abbreviates: HepaRG cells, electroporation with 1,000 nM antisense oligonucleotide, approx. 24 hours, PKK mRNA by RT-PCR (RTS3454), relative to untreated control cells, Table 26 experiment.
The mark [6] stands for this setting: HepaRG cells, electroporation with 1,000 nM antisense oligonucleotide, approx. 24 hours, PKK mRNA by RT-PCR (RTS3454), relative to untreated control cells, Table 25 experiment.
The mark [7] stands for this setting: HepaRG cells, electroporation with 1,000 nM antisense oligonucleotide, approximately 24 hours, primer probe set RTS3454, relative to untreated control cells, experiment of Table 24.
[8] abbreviates: Table 27, HepaRG cells, 1,000 nM antisense oligonucleotide, human PKK mRNA.

Strand notation (5' to 3'): a small letter for the sugar, then the base; units joined by * are phosphorothioate-linked, units joined directly phosphodiester-linked; [ ] holds rarer units or linkages, { } end groups; capitals alone tell only the bases. e = 2'-O-(2-methoxyethyl) (MOE); k = constrained ethyl (cEt); [5mC] = 5-methylcytosine; d = 2'-deoxy (DNA)

Consider “547966 (antisense eA*eG*kG*dG*dT*dT*d[5mC]*dA*dG*dG*dT*dA*dA*kA*kG*eT) [compound 547966]”, for which the % inhibition (as a rule, the drop in the measured response relative to a control, in per cent) under setting [1] turned out to be 13%.

In the case of “548124 (antisense eT*eA*kG*dA*d[5mC]*dT*d[5mC]*dT*dG*dG*dA*d[5mC]*dT*kG*k[5mC]*eT) [compound 548124]”, the “% inhibition” value under setting [2] came to 51%.

With “548512 (antisense eT*e[5mC]*k[5mC]*dG*d[5mC]*d[5mC]*dT*dT*dT*dG*dG*dA*dT*kA*k[5mC]*eT) [compound 548512]”, the “% inhibition” value (Table 28, HepaRG cells, 1,000 nM antisense oligonucleotide, human PKK mRNA) came to 49%.

Consider “548449 (eA*eT*k[5mC]*dA*d[5mC]*dT*dG*dT*d[5mC]*d[5mC]*dT*dA*dT*kG*kT*e[5mC]; antisense) [compound 548449]”, for which, for the setting “Table 30, human PKK mRNA, HepaRG cells, 1,000 nM antisense oligonucleotide”, the “% inhibition” value turned out to be 62%.

As to “547884 (e[5mC]*eG*kT*dG*dG*d[5mC]*dA*dT*dA*dT*dG*dA*dA*kA*kA*eA; antisense) [compound 547884]”, the “% inhibition” value came to 87% under setting [3] and 49% under setting [4].

Take “548280 (antisense e[5mC]*eT*k[5mC]*d[5mC]*d[5mC]*dT*d[5mC]*dT*dG*dT*dA*dA*dT*kG*kA*eT) [compound 548280]”: the “% inhibition” value under setting [5] was 43%.

For “548207 (e[5mC]*eT*kG*dG*dT*d[5mC]*dA*dA*dT*d[5mC]*dT*dG*dA*k[5mC]*kT*eA; antisense) [compound 548207]”, under setting [6], the “% inhibition” value worked out at 60%.

Consider “548019 (e[5mC]*e[5mC]*k[5mC]*d[5mC]*dA*dA*dG*dA*dA*dG*dA*dG*dT*kT*kT*eG; antisense) [compound 548019]”, for which the “% inhibition” value under setting [7] is 24%.

In the case of “548317 (e[5mC]*e[5mC]*kG*dG*dG*dA*dA*dA*dG*dA*d[5mC]*dT*dG*kT*k[5mC]*eT; antisense) [compound 548317]”, the “% inhibition” value under setting [8] worked out at 42%.

In the case of “548205 (eT*e[5mC]*kA*dA*dT*d[5mC]*dT*dG*dA*d[5mC]*dT*dA*dG*kT*kG*eA; antisense) [compound 548205]”, the “% inhibition” value under setting [6] is on record as 14%.

On to “548236 (eT*eA*k[5mC]*dA*dT*d[5mC]*dT*dA*dG*dA*dT*dG*dA*k[5mC]*k[5mC]*eT; antisense) [compound 548236]”, for which the “% inhibition” value under setting [5] was found to be 37%.

In the case of “547973 (antisense eA*eA*kG*dT*d[5mC]*dA*dA*d[5mC]*dT*d[5mC]*d[5mC]*d[5mC]*dG*kG*kG*eT) [compound 547973]”, under setting [1], the “% inhibition” value is on record as 62%.

On to “548362 (antisense eG*eA*k[5mC]*dA*dA*d[5mC]*d[5mC]*d[5mC]*dA*dT*d[5mC]*dA*dG*kT*kT*eG) [compound 548362]”, for which the “% inhibition” value under setting [8] is recorded as 33%.

For the substance “547860 (antisense eT*e[5mC]*k[5mC]*dT*d[5mC]*dT*d[5mC]*dA*dT*dA*dT*d[5mC]*dA*kA*k[5mC]*eT) [compound 547860]”, the “% inhibition” value is on record as 71% under setting [3] and 70% under setting [4].

Regarding “548608 (antisense eA*eT*k[5mC]*dG*dG*dT*dG*dG*dT*dG*dG*dG*dA*kT*kT*eG) [compound 548608]”, the “% inhibition” value (HepaRG cells, 1,000 nM antisense oligonucleotide, Table 29) is reported as 25%.

“548148 (eG*e[5mC]*kA*dG*d[5mC]*dT*d[5mC]*dT*dG*dA*dG*dT*dG*k[5mC]*kA*e[5mC]; antisense) [compound 548148]”: the “% inhibition” value under setting [2] is on record as 66%.

With “548232 (eG*e[5mC]*k[5mC]*dA*dT*dA*d[5mC]*dA*dT*d[5mC]*dT*dG*dA*kG*kG*eA; antisense) [compound 548232]”, under setting [5], the “% inhibition” value is reported as 3%.

With “548029 (eT*eG*kG*dT*dG*dT*d[5mC]*d[5mC]*dT*dA*dT*dG*dA*kG*kT*eG; antisense) [compound 548029]”, under setting [7], the “% inhibition” value is reported as 12%.

On to “547794 (antisense eT*e[5mC]*kA*dT*dA*dG*dA*dG*dT*dT*dG*dA*dG*kT*k[5mC]*eA) [compound 547794]”, for which the “% inhibition” value (Table 21 experiment, HepaRG cells, electroporation with 1,000 nM antisense oligonucleotide, approx. 24 hours, PKK mRNA by RT-PCR (RTS3454), relative to untreated control cells) was 49%.

For “548058 (eG*e[5mC]*kA*dT*dA*dT*dT*dG*dG*dT*dT*dT*dT*kT*kG*eG; antisense) [compound 548058]”, the “% inhibition” value under setting [7] is reported as 71%.

On to “547897 (eA*eT*kA*dG*dG*d[5mC]*dA*dA*dT*dT*dG*dT*dT*k[5mC]*k[5mC]*eG; antisense) [compound 547897]”, for which the “% inhibition” value under setting [4] is 82%.
